Columns and labels:
VMAT2 [1] = molecular target: T1, VMAT2 (Rattus norvegicus, UniProt Q01827); conditions: cited from earlier work
[2] = cited from earlier work
VMAT2 [3] = molecular target: T1, VMAT2; experiment: Vesicular [^3H]DA uptake assay; format: biochemical
METH self-administration = conditions: rats; cited from earlier work
[4] = system: sucrose-maintained responding; conditions: rats; cited from earlier work

T1 sequence (Q01827 whole entry): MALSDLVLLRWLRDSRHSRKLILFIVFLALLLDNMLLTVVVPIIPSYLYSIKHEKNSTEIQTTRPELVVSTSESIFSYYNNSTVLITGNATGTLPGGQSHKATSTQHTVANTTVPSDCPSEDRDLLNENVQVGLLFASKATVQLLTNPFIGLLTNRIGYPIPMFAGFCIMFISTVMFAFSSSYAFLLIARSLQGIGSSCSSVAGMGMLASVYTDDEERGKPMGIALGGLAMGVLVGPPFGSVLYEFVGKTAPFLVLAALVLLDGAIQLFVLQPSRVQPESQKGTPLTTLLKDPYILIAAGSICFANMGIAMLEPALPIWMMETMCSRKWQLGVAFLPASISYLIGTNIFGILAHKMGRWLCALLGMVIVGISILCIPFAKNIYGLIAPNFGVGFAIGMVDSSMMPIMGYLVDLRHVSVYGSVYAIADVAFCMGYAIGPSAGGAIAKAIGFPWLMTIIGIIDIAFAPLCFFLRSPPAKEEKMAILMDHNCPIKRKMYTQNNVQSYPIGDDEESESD

CN1[C@@H](CC(=O)c2ccccc2)CCC[C@H]1C[C@H](O)c1ccccc1 [lobeline]
effect on DA uptake into synaptic vesicles via VMAT2 (VMAT2 [1]): inhibit | side-effects in clinical trials [2]: bitter taste and nausea

Cl.Cl.FCCOc1ccc(CCN2CCN(CCc3ccccc3Cl)CC2)cc1 [Compound 15f, 1-(2-chlorophenethyl)-4-(4-(2-fluoroethoxy)phenethyl)piperazine]
fold less potent at VMAT2 than 15d (VMAT2 [3]): 32 fold

CN1[C@@H](CCc2ccccc2)CCC[C@H]1CCc1ccccc1 [lobelane]
effect on METH self-administration (METH self-administration): dose-dependently decreased | effect on sucrose-maintained responding [4]: without decreasing
